Laboratory results published in the NIST ThermoML archive (doi:10.1016/j.jct.2006.07.018).

Test: molar heat capacity at constant pressure; mn = molality of the nth substance listed, in mol/kg
Conditions: 350 kPa, Liquid, high-precision DSC

CSCC[C@H](N)C(=O)O [L-methionine] + O
molar heat capacity at constant pressure [J/K/mol]
Conditions | m1 = 0.0125 | m1 = 0.025 | m1 = 0.05 | m1 = 0.0997 | m1 = 0.1501 | m1 = 0.1929
338.15 K | 75.45 | 75.53 | 75.62 | 75.84 | 76.08 | 76.26
343.15 K | 75.51 | 75.59 | 75.68 | 75.9 | 76.13 | 76.32
348.15 K | 75.58 | 75.65 | 75.75 | 75.96 | 76.2 | 76.38
353.15 K | 75.65 | 75.72 | 75.82 | 76.03 | 76.27 | 76.46
358.15 K | 75.73 | 75.8 | 75.9 | 76.11 | 76.35 | 76.54
363.15 K | 75.82 | 75.88 | 75.98 | 76.2 | 76.43 | 76.62
368.15 K | 75.91 | 75.98 | 76.08 | 76.29 | 76.53 | 76.71
373.15 K | 76.01 | 76.08 | 76.18 | 76.39 | 76.63 | 76.81
378.15 K | 76.13 | 76.19 | 76.29 | 76.5 | 76.74 | 76.92
383.15 K | 76.24 | 76.31 | 76.41 | 76.62 | 76.85 | 77.03
388.15 K | 76.38 | 76.45 | 76.54 | 76.74 | 76.98 | 77.15
393.15 K | 76.52 | 76.6 | 76.68 | 76.88 | 77.11 | 77.28
